EP4729529A1, “PREPARATION OF PEPTIDE INHIBITOR OF INTERLEUKIN-23 RECEPTOR AND USE THEREOF” (Xizang Haisco Pharmaceutical Co., Ltd., priority 2023, dated 2024)
Starred links: 1 amine or outer side, 2 acyl side, 3 side chain; linkers in the order of their positions; H or OH if unused. Positions of bridges follow the written chain, without caps; N, C: chain ends. Non-standard residues stand in square brackets, D forms with d. Residues, ends and D or L forms follow the SMILES beside them. Groups on a side chain read outwards from the residue. *: point of attachment. Phe(4-OC2H4NH2,2,3-(CH2)3) = NCCOc1ccc(C[C@H](N)C(=O)O)c2c1CCC2; Trp(7-cPr) = N[C@@H](Cc1c[nH]c2c(C3CC3)cccc12)C(=O)O; X4 = COCCOCCOCCOCCOCCOCCOCCOCCOCCOCCOCCOCCOCC(=O)*; Trp(7-Me) = Cc1cccc2c(C[C@H](N)C(=O)O)c[nH]c12; C18 diacid = O=C(O)CCCCCCCCCCCCCCCCC(=O)*; X6 = COCCOCCOCCOCCOCCOCCOCCOCCOCCOCC(=O)*; γGlu = O=C(O)[C@H](CCC(=O)[*:2])N[*:1]; 2Nal = N[C@@H](Cc1ccc2ccccc2c1)C(=O)O; X1 = O=C(C(N[*:1])C1(S[*:3])CC1)[*:2]; Thp(SO2) = NC1(C(=O)O)CCS(=O)(=O)CC1; mXylylene = c1cc(C[*:1])cc(C[*:2])c1; AEF = NCCOc1ccc(C[C@H](N)C(=O)O)cc1; Adipoyl = O=C(CCCCC(=O)[*:2])[*:1]; 3Pal = N[C@@H](Cc1cccnc1)C(=O)O; Pen = CC(C)(S)[C@H](N)C(=O)O; Thp = NC1(C(=O)O)CCOCC1; Dap = NC[C@H](N)C(=O)O; AEEA = NCCOCCOCC(=O)O; CO = O=C([*:1])[*:2]; Sar = CNCC(=O)O

The compounds below were run against T1, IL-23α/IL-12β and IL-23R (Homo sapiens, UniProt Q5VWK5) (assay: IL-23α/IL-12β and IL-23R binding assay (TR-FRET/HTRF)). Details: inhibition of the binding of IL-23α/IL-12β to IL-23R, TR-FRET; both proteins 0.3 nM.
T1 construct: purchased ACRO ILR-H82F3 (IL-23R); ILB-H52W5 (IL-23α/IL-12β)
T1 sequence (Q5VWK5 24-353 limits assumed): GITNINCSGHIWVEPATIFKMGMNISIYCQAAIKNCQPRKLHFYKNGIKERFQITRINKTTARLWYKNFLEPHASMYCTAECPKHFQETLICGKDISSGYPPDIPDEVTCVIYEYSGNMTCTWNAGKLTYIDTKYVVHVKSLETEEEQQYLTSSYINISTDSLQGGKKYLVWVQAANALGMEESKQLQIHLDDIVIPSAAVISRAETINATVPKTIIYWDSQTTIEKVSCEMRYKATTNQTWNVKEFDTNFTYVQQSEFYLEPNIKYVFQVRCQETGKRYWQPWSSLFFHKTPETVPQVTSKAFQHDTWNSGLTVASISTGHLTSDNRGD
Procedure: 1. IL-23α/IL-12β and IL-23R binding assay
Compounds were tested for their inhibition on the binding of IL-23α/IL-12β to IL-23R by the TR-FRET method. Solutions of proteins IL-23α/IL-12β (ACRO, Cat# ILB-H52W5) and IL-23R (ACRO, Cat# ILR-H82F3) were prepared in reaction buffer PPI (PerkinElmer, Cat# 61DB10RDF). The final concentrations of IL-23α/IL-12β and IL-23R in the reaction mixture were both 0.3 nM. Positive reference Guselkumab was 3-fold diluted from an initial concentration of 30 nM, with 10 doses. 0.1 µL of the positive reference diluted in the reaction buffer was delivered to a 384-well plate (Grenier, Cat# 784075) by the acoustic liquid delivery technique (Echo 655), and the plate was centrifuged at 1000 rpm for 1 minute. 2.5 µL of IL-23α/IL-12β solution was transferred into the 384-well reaction plate, and the plate was centrifuged at 1000 rpm for 1 minute, and incubated at 25°C for 60 minutes. 2.5 µL of IL-23R solution was transferred into the 384-well reaction plate, and the plate was centrifuged at 1000 rpm for 1 minute. 5 µL of Streptavidin-Tb cryptate and Anti 6HIS-d2 detection mixture was transferred into the 384-well reaction plate, and the plate was centrifuged at 1000 rpm for 1 minute, and incubated at 25°C for 60 minutes. Finally, the HTRF signal (Ratio 665/620 nm) was read with a BMG high-throughput drug screening multifunctional microplate reader. IC50 values were obtained by nonlinear regression curve fitting using GraphPad Prism software.

| SMILES | IC50 |
| --- | --- |
| CC(=O)N[C@H]1CSCc2cccc(c2)CSC[C@@H](C(=O)N[C@@H](Cc2ccc(OCCN)c3c2CCC3)C(=O)N[C@@H](Cc2ccc3ccccc3c2)C(=O)NC2(C(=O)N[C@@H](CCC(=O)O)C(=O)N[C@@H](CC(N)=O)C(=O)N[C@@H](Cc3cccnc3)C(=O)N(C)CC(N)=O)CCS(=O)(=O)CC2)NC(=O)[C@H](CCC(N)=O)NC(=O)[C@H](Cc2c[nH]c3c(C)cccc23)NC(=O)[C@H]([C@@H](C)O)NC(=O)[C@H](Cc2c[nH]cn2)NC1=O [Compound 30] (Ac-CHT[Trp(7-Me)]QC[Phe(4-OC2H4NH2,2,3-(CH2)3)][2Nal][Thp(SO2)]EN[3Pal][Sar]-NH2; linker 1-6 via mXylylene) | 0.46 nM |
| CC(=O)NCCCC[C@@H]1NC(=O)[C@H](Cc2c[nH]c3c(C)cccc23)NC(=O)[C@H]([C@@H](C)O)NC(=O)[C@H](CC(N)=O)NC(=O)C(NC(C)=O)CCCC[C@@H](C(=O)N[C@@H](Cc2ccc(OCCN)cc2)C(=O)N[C@@H](Cc2ccc3ccccc3c2)C(=O)NC2(C(=O)N[C@@H](CCC(=O)O)C(=O)N[C@@H](CC(N)=O)C(=O)N[C@@H](Cc3cccnc3)C(=O)N(C)CC(N)=O)CCOCC2)NC1=O (single isomer, unassigned) [Compound 44-1] | 0.145 nM |
| C[C@@H](O)[C@@H]1NC(=O)[C@H](Cc2c[nH]cn2)NC(=O)[C@@H](NC(=O)COCCOCCNC(=O)COCCOCCNC(=O)CC[C@H](NC(=O)CCCCCCCCCCCCCCCCC(=O)O)C(=O)O)C(C)(C)SSC(C)(C)[C@@H](C(=O)N[C@@H](Cc2ccc(OCCN)c3c2CCC3)C(=O)N[C@@H](Cc2ccc3ccccc3c2)C(=O)NC2(C(=O)N[C@@H](CCC(=O)O)C(=O)N[C@@H](CC(N)=O)C(=O)N[C@@H](Cc3cccnc3)C(=O)N(C)CC(N)=O)CCS(=O)(=O)CC2)NC(=O)[C@H](CCC(N)=O)NC(=O)[C@H](Cc2c[nH]c3c(C4CC4)cccc23)NC1=O [Compound 20] ({C18 diacid-γGlu-AEEA-AEEA}-[Pen]HT[Trp(7-cPr)]Q[Pen][Phe(4-OC2H4NH2,2,3-(CH2)3)][2Nal][Thp(SO2)]EN[3Pal][Sar]-NH2; disulfide 1-6) | 0.116 nM |
| CC(=O)N[C@H]1CNC(=O)NC[C@@H](C(=O)N[C@@H](Cc2ccc(OCCN)cc2)C(=O)N[C@@H](Cc2ccc3ccccc3c2)C(=O)NC2(C(=O)N[C@@H](CCC(=O)O)C(=O)N[C@@H](CC(N)=O)C(=O)N[C@@H](Cc3cccnc3)C(=O)N(C)CC(N)=O)CCOCC2)NC(=O)[C@H](CCC(N)=O)NC(=O)[C@H](Cc2c[nH]c3c(C)cccc23)NC(=O)[C@H]([C@@H](C)O)NC(=O)[C@H](Cc2c[nH]cn2)NC1=O [Compound 23] (Ac-[Dap]HT[Trp(7-Me)]Q[Dap][AEF][2Nal][Thp]EN[3Pal][Sar]-NH2; linker 1-6 via CO) | 0.161 nM |
| CC(=O)NCCCC[C@@H]1NC(=O)[C@H](Cc2c[nH]c3c(C)cccc23)NC(=O)[C@H]([C@@H](C)O)NC(=O)[C@H](Cc2c[nH]cn2)NC(=O)[C@@H](NC(C)=O)CCCC[C@@H](C(=O)N[C@@H](Cc2ccc(OCCN)c3c2CCC3)C(=O)N[C@@H](Cc2ccc3ccccc3c2)C(=O)NC2(C(=O)N[C@@H](CCC(=O)O)C(=O)N[C@@H](CC(N)=O)C(=O)N[C@@H](Cc3cccnc3)C(=O)N(C)CC(N)=O)CCOCC2)NC1=O [Compound 52] | 0.101 nM |
| CC(=O)N[C@@H]1C(=O)N[C@@H](Cc2c[nH]cn2)C(=O)N[C@@H]([C@@H](C)O)C(=O)N[C@@H](Cc2c[nH]c3c(C4CC4)cccc23)C(=O)N[C@@H](CCCCNC(=O)COCCOCCNC(=O)COCCOCCNC(=O)CC[C@H](NC(=O)CCCCCCCCCCCCCCCCC(=O)O)C(=O)O)C(=O)N[C@H](C(=O)N[C@@H](Cc2ccc(OCCN)c3c2CCC3)C(=O)N[C@@H](Cc2ccc3ccccc3c2)C(=O)NC2(C(=O)N[C@@H](CCC(=O)O)C(=O)N[C@@H](CC(N)=O)C(=O)N[C@@H](Cc3cccnc3)C(=O)N(C)CC(N)=O)CCS(=O)(=O)CC2)C(C)(C)SSC1(C)C [Compound 21] (Ac-[Pen]HT[Trp(7-cPr)]K([AEEA-AEEA-γGlu-C18 diacid])[Pen][Phe(4-OC2H4NH2,2,3-(CH2)3)][2Nal][Thp(SO2)]EN[3Pal][Sar]-NH2; disulfide 1-6) | 0.248 nM |
| COCCOCCOCCOCCOCCOCCOCCOCCOCCOCCOCCOCCOCC(=O)N[C@@H]1C(=O)N[C@@H](Cc2c[nH]cn2)C(=O)N[C@@H]([C@@H](C)O)C(=O)N[C@@H](Cc2c[nH]c3c(C4CC4)cccc23)C(=O)N[C@@H](CCC(N)=O)C(=O)N[C@H](C(=O)N[C@@H](Cc2ccc(OCCN)c3c2CCC3)C(=O)N[C@@H](Cc2ccc3ccccc3c2)C(=O)NC2(C(=O)N[C@@H](CCC(=O)O)C(=O)N[C@@H](CC(N)=O)C(=O)N[C@@H](Cc3cccnc3)C(=O)N(C)CC(N)=O)CCS(=O)(=O)CC2)C(C)(C)SSC1(C)C [Compound 46] (X4-[Pen]HT[Trp(7-cPr)]Q[Pen][Phe(4-OC2H4NH2,2,3-(CH2)3)][2Nal][Thp(SO2)]EN[3Pal][Sar]-NH2; disulfide 1-6) | 0.095 nM |
| CC(=O)N[C@@H]1C(=O)N[C@@H](Cc2c[nH]cn2)C(=O)N[C@@H]([C@@H](C)O)C(=O)N[C@@H](Cc2c[nH]c3c(C4CC4)cccc23)C(=O)N[C@@H](CCCCNC(=O)COCCOCCNC(=O)COCCOCCNC(=O)CC[C@H](NC(=O)CCCCC(=O)O)C(=O)O)C(=O)N[C@H](C(=O)N[C@@H](Cc2ccc(OCCN)c3c2CCC3)C(=O)N[C@@H](Cc2ccc3ccccc3c2)C(=O)NC2(C(=O)N[C@@H](CCC(=O)O)C(=O)N[C@@H](CC(N)=O)C(=O)N[C@@H](Cc3cccnc3)C(=O)N(C)CC(N)=O)CCS(=O)(=O)CC2)C(C)(C)SSC1(C)C [Compound 49] (Ac-[Pen]HT[Trp(7-cPr)]K([AEEA-AEEA-γGlu-Adipoyl])[Pen][Phe(4-OC2H4NH2,2,3-(CH2)3)][2Nal][Thp(SO2)]EN[3Pal][Sar]-NH2; disulfide 1-6) | 0.068 nM |
| CC(=O)NC1C(=O)N[C@@H](Cc2c[nH]cn2)C(=O)N[C@@H]([C@@H](C)O)C(=O)N[C@@H](Cc2c[nH]c3c(C)cccc23)C(=O)N[C@@H](CCC(N)=O)C(=O)NC(C(=O)N[C@@H](Cc2ccc(OCCN)c3c2CCC3)C(=O)N[C@@H](Cc2ccc3ccccc3c2)C(=O)NC2(C(=O)N[C@@H](CCC(=O)O)C(=O)N[C@@H](CC(N)=O)C(=O)N[C@@H](Cc3cccnc3)C(=O)N(C)CC(N)=O)CCS(=O)(=O)CC2)C2(CC2)SSC12CC2 (stereo partly shown) [Compound 55] (Ac-[X1]HT[Trp(7-Me)]Q[X1][Phe(4-OC2H4NH2,2,3-(CH2)3)][2Nal][Thp(SO2)]EN[3Pal][Sar]-NH2; disulfide 1-6) | 0.068 nM |
| COCCOCCOCCOCCOCCOCCOCCOCCOCCOCC(=O)N[C@@H]1C(=O)N[C@@H](Cc2c[nH]cn2)C(=O)N[C@@H]([C@@H](C)O)C(=O)N[C@@H](Cc2c[nH]c3c(C4CC4)cccc23)C(=O)N[C@@H](CCC(N)=O)C(=O)N[C@H](C(=O)N[C@@H](Cc2ccc(OCCN)c3c2CCC3)C(=O)N[C@@H](Cc2ccc3ccccc3c2)C(=O)NC2(C(=O)N[C@@H](CCC(=O)O)C(=O)N[C@@H](CC(N)=O)C(=O)N[C@@H](Cc3cccnc3)C(=O)N(C)CC(N)=O)CCS(=O)(=O)CC2)C(C)(C)SSC1(C)C [Compound 39] (X6-[Pen]HT[Trp(7-cPr)]Q[Pen][Phe(4-OC2H4NH2,2,3-(CH2)3)][2Nal][Thp(SO2)]EN[3Pal][Sar]-NH2; disulfide 1-6) | 0.057 nM |
